{
  "source": "patent US6172205A",
  "about": "“Synthetic process toward total synthesis of eleutherobin and its analogues and uses thereof” (The Trustees of Columbia in the City of New York, priority 1998, dated 2001)",
  "key": {"microtubules": {"system": "microtubules", "details": "cited from earlier work"}, "[1]": {"system": "tubulin / microtubule protein", "experiment": "Tubulin polymerization by turbidity at 350 nm in the absence of GTP", "type": "biochemical, calf", "details": "10 μM, 37 °C, relative to 10 μM Taxol (100%)", "procedure": "Eleutherobin and its derivatives were synthesized as described (18,19). Taxol was obtained from the Drug Development Branch, National Cancer Institute (Bethesda, Md.). All compounds were dissolved in dimethyl sulfoxide (Sigma Chemical Co., St. Louis, Mo.) at stock concentrations of 5 mM and stored at -20° C. All control samples contained an equal volume of DMSO. GTP was obtained from Sigma Chemical Co. And dissolved in sterile distilled water at a concentration of 10 mM and stored at -20° C. Microtubule protein was purified from calf brains by two cycles of temperature-dependent assembly and disassembly (20) and stored in liquid nitrogen prior to use. The anti-mouse β-tubulin monoclonal antibody T-4026 was obtained from Sigma Chemical Co.\nThe ability of each compound to polymerize tubulin was evaluated by recording the change in turbidity of microtubule protein at 350 nm for 80 min in a spectrophotometer (UVIKON, Research Instruments Int., SD, Calif.). One mg of purified microtubule protein was diluted in assembly buffer containing 0.1 M MES, 1 mM EGTA, 0.5 mM MgCl2 and 3 M glycerol, pH 6.6. All compounds were evaluated at a concentration of 10 μM at 37° C. […] Microtubule stability was assessed by the addition of 10 mM Ca^++. changes from t=0-10 min were used to calculate initial slopes from the linear portion of each curve. These values were used to calculate the activity of each compound (relative to the activity of Taxol which was assigned a value of 100%).\nThe polymerization activity of these compounds was also assessed by determining the slope of the linear portion of each curve at A350 nm (t=0-10 min), and expressing this relative to Taxol (which was assigned a value of 100% (FIG. 8). The order of activity of eleutherobin and derivatives using this method, corroborates the results obtained from cytotoxicity studies."}, "[2]": {"system": "cellular microtubules, NIH 3T3 cells", "experiment": "Microtubule bundle formation by immunofluorescence", "type": "cell-based", "details": "2 μM, 5.5 h", "procedure": "FIG. 9 immunofluorescence images NIH3T3 cells labeled with β-tubulin antibody following exposure to different drugs. A)DMSO; B)2 μM Taxol; C)2 μM eleutherobin; D)2 μM neo-eleutherobin; E)2 μM SKBII.294; F)2 μM SKBIII.13.\nIllustrates the effects of eleutherobin and its derivatives on the morphology of cellular microtubules following exposure of cells to 2 μM of each compound for 5.5 h at 37° C. […] The number of micotic asters correlated with the extent of microtubule bundling in interphase cells.\nNIH 3T3 cells were grown to subconfluency on glass converslips in 35 mm plastic petri dishes. Cells were exposed to 2 μM of Taxol and each of the experimental compounds for 5.5 h at 37° C., rinsed twice in PBS and extracted with 0.5% Triton-X-100 in microtubule stabilizing buffer (PEM) (100 mM PIPES, 2 mM EGTA and 2 mM MgCl2, pH 6.8) for 4 min. Following a wash in PEM, the cells were fixed for 40 min at room temperature in 3% formaldehyde in PEM followed by incubation in 0.1 M glycine in PBS for 10 min and washing (four times) in PEM containing 5 μM EGTA. Following blocking in 20% normal goat serum (NGS) for 30 min at room temperature, cells were incubated for 1 h at 37° C. with a 1:100 dilution of β-tubulin mAb diluted in 10% NGS, washed twice in 1% BSA, once in PBS and three times in 1% BSA. Cells were then incubated in a 1:200 dilution of the secondary fluorophore antibody, IndocarbocyanineCY3 (Jackson Immunoresearch Laboratories Inc., Pa.) in 20% NGS for 20 min at room temperature. Finally cells were washed three times in 1% BSA and the dried slides mounted in 30% glycerol in PBS containing […]-phenylene diamine (1 mg/ml). Fixed slides were examined using a Zeiss Axioskop microscope."}},
  "note": "Entries after “also recorded” stand apart in the source; their conditions may differ.",
  "data": [
    {"smiles": "CO[C@]12C=C[C@](C)(O1)[C@@H](OC(=O)/C=C/c1cn(C)cn1)C[C@H]1C(C)=CC[C@H](C(C)C)[C@H]1/C=C\\2CO[C@@H]1OC[C@@H](O)[C@@H](O)[C@@H]1OC(C)=O", "note": "[Eleutherobin]", "values": [
      {"measurement": "effect on microtubules (in words)", "setting": "microtubules", "value": "potentiates the assembly of stable microtubules resistant to depolymerization; also recorded: promotes the polymerization of stable microtubules"},
      {"measurement": "polymerization activity relative to Taxol", "setting": "[1]", "value": 94, "unit": "%"},
      {"measurement": "microtubule bundle formation (in words)", "setting": "[2]; 37 °C", "value": "extensive microtubule bundling"},
      {"measurement": "multiple asters in mitotic cells", "setting": "[2]; data not shown", "value": "also seen in eleutherobin and neo-eleutherobin-treated cells"}
    ]}
  ]
}
